Measured values published in patent publication US7875625B2, “Cyclohepta[b]pyridine-3-carbonylguanidine derivative and pharmaceutical product containing same” (Toa Eiyo Ltd., priority 2005, dated 2011).
Where a name gives a salt, the structure may show the parent alone.

How the values were obtained:
Na^+/H^+ exchanger (NHE) = target: T1, Na^+/H^+ exchanger (NHE) (Rattus norvegicus, UniProt P26431); assay: NHE inhibitory effect test (swelling of rat platelets induced by sodium propionate); format: cell-based; settings: for IC50: rat platelet-rich plasma, sodium propionate buffer pH 6.7, 300 μM Amiloride taken as 100% inhibition, Probit method; for NHE inhibitory activity (in words): compared with the control compound
T1 construct: from tissue; host or cells: platelet-rich plasma from Wistar rat blood
T1 sequence (P26431 whole entry): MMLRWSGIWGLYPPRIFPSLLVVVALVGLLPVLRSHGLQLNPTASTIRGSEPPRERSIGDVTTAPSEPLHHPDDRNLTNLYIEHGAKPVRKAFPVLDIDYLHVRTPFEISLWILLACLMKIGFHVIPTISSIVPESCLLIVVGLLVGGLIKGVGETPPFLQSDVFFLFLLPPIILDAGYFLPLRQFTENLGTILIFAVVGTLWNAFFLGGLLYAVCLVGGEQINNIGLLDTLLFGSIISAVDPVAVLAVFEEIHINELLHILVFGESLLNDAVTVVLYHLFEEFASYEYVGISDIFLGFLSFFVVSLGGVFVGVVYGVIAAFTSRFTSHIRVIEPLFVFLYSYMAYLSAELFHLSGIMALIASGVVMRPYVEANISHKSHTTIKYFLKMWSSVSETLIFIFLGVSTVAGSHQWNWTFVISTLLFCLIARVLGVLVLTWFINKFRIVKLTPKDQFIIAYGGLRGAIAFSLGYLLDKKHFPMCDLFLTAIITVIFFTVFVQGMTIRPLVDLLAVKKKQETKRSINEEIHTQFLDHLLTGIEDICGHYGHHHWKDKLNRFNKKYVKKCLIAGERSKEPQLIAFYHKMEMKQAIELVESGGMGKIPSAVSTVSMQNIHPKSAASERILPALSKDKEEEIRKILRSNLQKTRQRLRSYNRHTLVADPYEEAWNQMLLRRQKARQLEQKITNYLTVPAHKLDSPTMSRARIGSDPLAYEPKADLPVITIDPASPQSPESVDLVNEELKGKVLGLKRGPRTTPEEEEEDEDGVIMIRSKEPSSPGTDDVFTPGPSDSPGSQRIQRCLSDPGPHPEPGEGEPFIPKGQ
Description: The NHE inhibitory activity was measured according to the method by Scholz et al. [British Journal of Pharmacology, Vol. 109, p. 562-568 (1993)], taking the swelling of rat platelets induced by sodium propionate as an index.
Under etherization, blood was collected (8 mL) from the abdominal aorta of a Wistar rat, and 1 mL of a citrate dextrose solution as an anticoagulant was added. The blood sample was immediately centrifuged at 90×g for 10 minutes, and then the collected supernatant was taken as platelet-rich plasma. Subsequently, to 250 μL of a 140 mM sodium propionate buffer solution containing the test compound dissolved in dimethylsulfoxide (pH 6.7, final dimethylsulfoxide concentration 1%), the platelet-rich plasma prepared in the above (number of platelet; 10×10^6/50 μL) was added, and the decrease in the absorbance associated with the swelling of platelets was measured over time with a Hematracer (NKK Corp.).
The rate of decrease in the absorbance at 20 seconds after the addition of the platelet-rich plasma was taken as the NHE activity, and the inhibitory activity of the respective compounds was expressed as a relative activity, while the action obtained upon addition of 300 μM of Amiloride was taken as 100% inhibition.
In addition, the test results were obtained by calculating the concentration at which the inhibitory activity of the test compound becomes 50% (IC50 value), by a Probit method.

[1] = test system: reperfusion-induced arrhythmia upon myocardial ischemia; assay: Reperfusion-induced arrhythmia inhibitory action test; format: in vivo, rat; settings: male SD rats, 3.62 mmol/L, 1 mL/kg intravenous, within 10 minutes after reperfusion
Description: Subsequently, in evaluation of the in vivo NHE inhibitory action, the effect of the test compound on reperfusion-induced arrhythmia upon myocardial ischemia was evaluated according to the method of Aihara et al. [European Journal of Pharmacology, Vol. 404, p. 221-229 (2000)]. Under anesthesia using pentobarbital sodium (60 mg/kg, intraperitoneal administration), cannulae were inserted into trachea, femoral vein and carotid artery of male SD rats ([…]) for artificial ventilation, drug administration and blood pressure measurement, respectively. The blood pressure was measured using a strain pressure amplifier via a pressure transducer, while the heart rate was measured from the blood pressure pulse wave using a cardiotachometer. Furthermore, an electrocardiogram (lead II) was measured from the electrodes attached to each four limbs. Next, under artificial ventilation, left thoracotomy was performed and a snare (5-0 nylon) was loosely placed around a blood vessel which was about 3 mm apart from the origin of the left coronary artery. Thereafter, it was confirmed that arrhythmia was not occurred for 10 minutes, and then the snare was fastened to induce local myocardial ischemia. Furthermore, after 4 minutes of myocardial ischemia, the compound was intravenously administered for 1 minute, and after 5 minutes of myocardial ischemia, the snare was loosened, then the arrhythmia occurred after reperfusion was recorded and analyzed with an arrhythmia analyzer (Softron Co., Ltd.), thereby the anti-arrhythmic action of the compound was evaluated. […] The control group was administered with physiological saline.
With regard to the ventricular fibrillation (Vf) which occurred within 10 minutes after reperfusion (in the cases of halfway death, up to the time point where cardiac arrest was confirmed), arrhythmia analysis was performed according to the Guidelines for Lambeth Convention [Cardiovascular research, Vol. 22, p. 447-455, 1988], and evaluation was made in terms of the frequency of Vf occurrence, cumulative duration time of Vf, and the mortality.
The frequency of Vf occurrence, cumulative duration of Vf, and the mortality for the respective test compounds are presented in Table 2.

[2] = Metabolic stability test in rat (generation of control compound in plasma); format: in vivo; settings: male SD rats; for Plasma concentration of the control compound, after 5 min / Plasma concentration of the control compound, after 15 min / Plasma concentration of the control compound, after 30 min / Plasma concentration of the control compound, after 60 min / Plasma concentration of the control compound, after 120 min: equivalent of 1 mg/kg control compound via tail vein, LC/MS/MS; for Decomposition into the Control Compound in vivo (in words): tail vein, plasma 5-120 min
Text: The compound represented by Formula (1) of the present invention has a structure in which the hydroxyl group on the 9-position of a 9-hydroxymethyl-cyclohepta[b]pyridine-3-carbonylguanidine derivative is converted to a specific substituent. However, if the compound is metabolized in vivo to remove the specific substituent from the compound, there may be generated the original 9-hydroxymethyl-cyclohepta[b]pyridine-3-carbonylguanidine derivative, which has toxic effects on the central nervous system. Thus, the inventive compounds as synthesized in Examples were administered in vivo to study whether the control compound, which was the corresponding 9-hydroxymethyl product, was generated.
Male SD rats (7 weeks old) were administered at 1 mg/kg (an amount calculated excluding salts) of the control compound, an equivalent amount of the Inventive Compound 2, 4, 6, 7 or 12, or Reference Compound 20, through the tail vein. After administration, about 0.2 mL of blood samples were collected after 5, 15, 30, 60 and 120 minutes, and the blood samples were centrifuged at 4° C. at a speed of rotation of 15000 for 15 minutes, thus to separate the supernatant plasma. The concentration of the control compound in the plasma was measured by LC/MS/MS. The measurement results were shown as +++ when the detected plasma concentration of the control compound is 200 ng/mL or greater; ++ for more than 100 ng/mL and less than 200 ng/mL; + for more than 20 ng/mL and less than 100 ng/mL; and − for less than 20 ng/mL or no detection.

male mice = assay: Toxicity test with 2-days repeated intraperitoneal administration in mouse; format: in vivo; settings: equivalent of 300 mg/kg control compound intraperitoneally once a day for 2 days
Description: For three male mice in each group, 300 mg/kg of the Control Compound (an amount calculated excluding salts), or an equivalent amount of the Inventive Compound 2, 4, 6, 7 or 12 were intraperitoneally administered once a day for 2 days, and a histopathological tests were performed. The Control Compound, and the Inventive Compounds 2, 4 and 6 were suspended in a 0.5% tragacanth gum solution, and the Inventive Compound 7 was suspended in a 10 DMSO-containing 0.5% tragacanth gum solution, while the Inventive Compound 12 was suspended in olive oil. For the histopathological test, in order to make a more thorough examination of central nervous toxicity, the brain was examined after whole body was subjected to perfusion fixation with a 4% formaldehyde in neutral phosphate buffer as a fixing solution using a liquid transporting pump under pentobarbital sodium anesthesia.

Beagle dogs = assay: Toxicity test after 4-days repeated intravenous administration in beagle dogs; format: in vivo, dog; settings: equivalent of 30 mg/kg control compound intravenously once a day for 4 days
Description: With one male and one female dogs in each group, 30 mg/kg of the Control Compound dissolved in physiological saline (an amount calculated excluding salts), or an equivalent amount of the Inventive Compound 2, 4, 6 or 8 was repeatedly administered intravenously once a day for 4 days, and general symptom observation and pharmacological histopathologic examination were performed.

Row | NHE inhibitory activity (in words) (Na^+/H^+ exchanger (NHE)) | Structure (SMILES) | IC50 (Na^+/H^+ exchanger (NHE)) | Cumulative duration of Vf [1] | Frequency of Vf occurrence [1] | Mortality [1] | Plasma concentration of the control compound, after 5 min [2] | Plasma concentration of the control compound, after 15 min [2] | Plasma concentration of the control compound, after 30 min [2] | Plasma concentration of the control compound, after 60 min [2] | Plasma concentration of the control compound, after 120 min [2] | Decomposition into the Control Compound in vivo (in words) [2] | Histopathological finding in the brain (male mice) | General condition (symptom observation) (Beagle dogs) | Pathologic examination of the brain (Beagle dogs)
1 | – | Cc1nc2c(cc1C(=O)NC(=N)N)CCCCC2COP(=O)([O-])[O-].[Na+].[Na+] (stereo not drawn) [Reference Compound 20, 3-Guanidinocarbonyl-2-methyl-6,7,8,9-tetrahydro-5H-cyclohepta[b]pyridin-9-ylmethyl phosphate disodium salt, reference compound] | 662 nM | 46.8 s | 80% | 40% | +++ (+++ when the detected plasma concentration of the control compound is 200 ng/mL or greater) | ++ (++ for more than 100 ng/mL and less than 200 ng/mL) | + (+ for more than 20 ng/mL and less than 100 ng/mL) | + (+ for more than 20 ng/mL and less than 100 ng/mL) | − (− for less than 20 ng/mL or no detection) | rapidly degraded to the Control Compound | – | – | –
2 | – | Cc1nc2c(cc1C(=O)NC(=N)N)CCCCC2COC(=O)N[C@H]1CO[C@H]2[C@@H]1OC[C@H]2OS(=O)(=O)O (stereo partly drawn) [Inventive Compound 12, 2-Deoxy-1,4:3,6-dianhydro-2-(3-guanidinocarbonyl-2-methyl-6,7,8,9-tetrahydro-5H-cyclohepta[b]pyridin-9-ylmethyloxycarbonylamino)-D-glucitol-5-yl hydrogen sulfate] | 227 nM | 0.0 s | 0% | 0% | − (− for less than 20 ng/mL or no detection) | − (− for less than 20 ng/mL or no detection) | − (− for less than 20 ng/mL or no detection) | − (− for less than 20 ng/mL or no detection) | − (− for less than 20 ng/mL or no detection) | not detected at any time point | any histologic finding which could be caused by drug administration was not recognized | – | –
3 | – | Cc1nc2c(cc1C(=O)NC(=N)N)CCCCC2COC(=O)NCCOCCOS(=O)(=O)O (stereo not drawn) [Inventive Compound 7, 2-[2-(3-Guanidinocarbonyl-2-methyl-6,7,8,9-tetrahydro-5H-cyclohepta[b]pyridin-9-ylmethyloxycarbonylamino)ethoxy]ethyl hydrogen sulfate] | 313 nM | 15.4 s | 40% | 0% | − (− for less than 20 ng/mL or no detection) | − (− for less than 20 ng/mL or no detection) | − (− for less than 20 ng/mL or no detection) | − (− for less than 20 ng/mL or no detection) | − (− for less than 20 ng/mL or no detection) | not detected at any time point | any histologic finding which could be caused by drug administration was not recognized | – | –
4 | significant lowering in the activity | Cc1nc2c(cc1C(=O)NC(=N)N)C(OS(=O)(=O)O)CCCC2 (stereo not drawn) [Reference Compound 23, 3-Guanidinocarbonyl-2-methyl-6,7,8,9-tetrahydro-5H-cyclohepta[b]pyridin-5-yl hydrogen sulfate, reference compound] | 37100 nM | – | – | – | – | – | – | – | – | – | – | – | –
5 | – | Cc1nc2c(cc1C(=O)NC(=N)N)CCCCC2COC(=O)NCCOCCOCCOCCOCCOCCOS(=O)(=O)[O-].[Na+] (stereo not drawn) [Inventive Compound 10, 17-(3-Guanidinocarbonyl-2-methyl-6,7,8,9-tetrahydro-5H-cyclohepta[b]pyridin-9-ylmethyloxycarbonylamino)-3,6,9,12,15-pentaoxaheptadecan-1-yl sulfate sodium salt] | 291 nM | 11.1 s | 67% | 0% | – | – | – | – | – | – | – | – | –
6 | significant lowering in the activity | N=C(N)NC(=O)c1cc2c(nc1COS(=O)(=O)O)CCCCC2 [Reference Compound 22, 3-Guanidinocarbonyl-6,7,8,9-tetrahydro-5H-cyclohepta[b]pyridin-2-ylmethyl hydrogen sulfate, reference compound] | > 100000 nM | – | – | – | – | – | – | – | – | – | – | – | –
7 | – | Cc1nc2c(cc1C(=O)NC(=N)N)CCCCC2COC(=O)NCCOCCOS(=O)(=O)[O-].[Na+] (stereo not drawn) [Inventive Compound 8, 2-[2-(3-Guanidinocarbonyl-2-methyl-6,7,8,9-tetrahydro-5H-cyclohepta[b]pyridin-9-ylmethyloxycarbonylamino)ethoxy]ethyl sulfate sodium salt] | – | – | – | – | – | – | – | – | – | – | – | only vomiting was recognized | any histologic finding which could be caused by drug administration was not recognized
